Values quoted from earlier work in US20240360175A1, “PEPTIDE DERIVATIVES AND RELATED USES AS OREXIN AGONISTS” (Centessa Pharmaceuticals (UK) Limited, priority 2021, published 2024).
Read-outs that look alike come from different tables or passages of the source.

Experiments:
[1] = target: T1, OX2R (Mus musculus, UniProt P58308); conditions: cited from earlier work
T1 construct: host or cells: mice in vivo (WT, orexin ligand-deficient, NT1 model, OX2R-knockout)
T1 sequence (P58308 1-460): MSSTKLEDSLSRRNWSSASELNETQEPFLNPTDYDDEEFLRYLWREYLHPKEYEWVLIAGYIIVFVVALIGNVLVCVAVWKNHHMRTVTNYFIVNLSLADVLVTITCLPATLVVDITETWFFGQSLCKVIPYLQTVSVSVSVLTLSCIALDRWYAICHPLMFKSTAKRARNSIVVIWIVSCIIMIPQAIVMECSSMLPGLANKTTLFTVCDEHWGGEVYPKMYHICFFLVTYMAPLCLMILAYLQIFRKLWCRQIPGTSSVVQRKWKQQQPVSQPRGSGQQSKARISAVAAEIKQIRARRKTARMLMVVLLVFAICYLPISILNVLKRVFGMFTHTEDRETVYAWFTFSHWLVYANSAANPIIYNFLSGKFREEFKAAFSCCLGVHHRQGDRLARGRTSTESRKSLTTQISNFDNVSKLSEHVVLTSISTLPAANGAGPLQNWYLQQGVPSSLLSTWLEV

[2] = tested on: OX2R; conditions: subcutaneous, cited from earlier work
[3] = tested on: individuals with NT1; conditions: initial clinical studies; cited from earlier work

COc1ccc(-c2cccc(C(=O)N(C)C)c2)cc1S(=O)(=O)Nc1cccc(NCCNC(=O)c2ccccc2N(C)C)c1 [YNT-185]
sleep-onset REM periods and cataplexy-like events ([1]; NT1 mouse model): decreases sleep-onset REM periods and cataplexy-like events | wakefulness ([1]; intraperitoneally or ICV, wild type (WT) and orexin ligand-deficient mice): modestly increases wakefulness

COC(=O)N1CCC[C@H](NS(C)(=O)=O)[C@@H]1CO[C@H]1CC[C@@H](c2ccccc2)CC1 [TAK-925]
wakefulness ([2]; OX2R-knockout mice): not in OX2R-knockout mice | wakefulness ([2]; WT mice): modestly increased wakefulness | cataplexy [3]: trends for decreasing cataplexy | wakefulness [3]: substantial levels of increased wakefulness
